Values of other authors as cited in US20020146399A1, “Sorbic acid product comprising probiotics as addition to feedstuffs in agricultural livestock rearing” (priority 2001, published 2002).

Key:
[1] = extensive data and decades of use in human food and animal feeds

solubility in cold water: dissolves only slightly
SMILES: C/C=C/C=C/C(=O)O [Sorbic acid, trans,trans-2,4-hexadienoic acid]
toxicity [1]: virtually nontoxic
